{"source": "BindingDB's records for doi:10.1080/14756360701654894", "about": "(National Tsing Hua University, 2008)", "key": {"[1]": {"molecular_target": "T1, Polyphenol oxidase 2 (Agaricus bisporus, UniProt O42713)", "T1 sequence (O42713 whole entry)": "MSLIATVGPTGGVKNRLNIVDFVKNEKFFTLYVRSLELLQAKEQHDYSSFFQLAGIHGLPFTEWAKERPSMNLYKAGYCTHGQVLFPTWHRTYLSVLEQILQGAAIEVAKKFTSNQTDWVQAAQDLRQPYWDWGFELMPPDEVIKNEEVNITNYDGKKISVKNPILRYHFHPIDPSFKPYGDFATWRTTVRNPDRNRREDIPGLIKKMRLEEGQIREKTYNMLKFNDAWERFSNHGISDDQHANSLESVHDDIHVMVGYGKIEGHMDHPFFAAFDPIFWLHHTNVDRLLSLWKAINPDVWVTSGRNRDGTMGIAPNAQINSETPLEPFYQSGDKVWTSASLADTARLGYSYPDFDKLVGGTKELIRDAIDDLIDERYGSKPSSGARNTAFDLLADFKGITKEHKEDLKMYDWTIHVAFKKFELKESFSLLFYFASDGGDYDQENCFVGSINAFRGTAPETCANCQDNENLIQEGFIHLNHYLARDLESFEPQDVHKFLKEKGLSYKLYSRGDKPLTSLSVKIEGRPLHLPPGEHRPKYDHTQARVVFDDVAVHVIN", "assay": "Enzyme Assay", "details": "pH 6.8; 25 °C"}, "[2]": {"molecular_target": "T2, Tyrosinase (Mus musculus, UniProt P11344)", "T2 sequence (P11344 whole entry)": "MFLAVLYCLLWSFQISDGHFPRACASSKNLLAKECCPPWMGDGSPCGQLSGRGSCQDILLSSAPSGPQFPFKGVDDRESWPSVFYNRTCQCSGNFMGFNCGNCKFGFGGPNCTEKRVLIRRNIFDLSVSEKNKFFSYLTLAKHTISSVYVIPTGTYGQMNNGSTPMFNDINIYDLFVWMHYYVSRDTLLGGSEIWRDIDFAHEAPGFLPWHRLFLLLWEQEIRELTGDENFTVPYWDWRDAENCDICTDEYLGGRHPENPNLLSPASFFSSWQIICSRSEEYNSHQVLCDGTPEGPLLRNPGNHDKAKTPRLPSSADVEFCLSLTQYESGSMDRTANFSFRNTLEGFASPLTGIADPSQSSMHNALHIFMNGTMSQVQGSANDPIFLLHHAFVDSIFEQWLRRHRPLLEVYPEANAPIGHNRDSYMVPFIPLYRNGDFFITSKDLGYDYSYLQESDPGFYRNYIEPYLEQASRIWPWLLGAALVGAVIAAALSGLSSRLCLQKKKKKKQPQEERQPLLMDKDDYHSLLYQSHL", "assay": "Enzyme Assay", "details": "pH 6.8; 25 °C"}}, "data": [{"smiles": "Oc1ccc(O)cc1", "values": [{"measurement": "IC50", "setting": "[1]", "result": 87.6, "unit": "µM"}, {"measurement": "IC50", "setting": "[2]", "result": 188, "unit": "µM"}]}, {"smiles": "OCC1OC(Oc2ccc(O)cc2)C(O)C(O)C1O", "note": "(centres undefined) [2-Hydroxymethyl-6-(4-hydroxy-phenoxy)-tetrahydro-pyran-3,4,5-triol]", "values": [{"measurement": "IC50", "setting": "[1]", "result": 296, "unit": "µM"}]}, {"smiles": "COc1ccc(/C=C2/SC(=S)N(CCC(=O)O)C2=O)cc1", "note": "[3-[(5E)-5-[(4-methoxyphenyl)methylidene]-4-oxo-2-sulfanylidene-3-thiazolidinyl]propanoic acid]", "values": [{"measurement": "IC50", "setting": "[1]", "result": 894, "unit": "µM"}, {"measurement": "IC50", "setting": "[2]", "result": 2390, "unit": "µM"}]}, {"smiles": "OCc1ccc(O)cc1", "note": "[4-Hydroxybenzyl alcohol]", "values": [{"measurement": "IC50", "setting": "[1]", "result": 350, "unit": "µM"}, {"measurement": "IC50", "setting": "[2]", "result": 650, "unit": "µM"}]}, {"smiles": "COc1cc(-c2nc(S(=O)(=O)c3ccc(C)cc3)c(N3CCOCC3)o2)cc(OC)c1OC", "note": "[4-[4-(4-methylphenyl)sulfonyl-2-(3,4,5-trimethoxyphenyl)-5-oxazolyl]morpholine]", "values": [{"measurement": "IC50", "setting": "[1]", "result": 402, "unit": "µM"}, {"measurement": "IC50", "setting": "[2]", "result": 952, "unit": "µM"}]}]}
